Consider 6 compounds from patent publication US9115159B2, “Phosphate compounds, a process for their preparation and pharmaceutical compositions containing them” (LES LABORATOIRES SERVIER, priority 2013, dated 2015).

Where two headings read alike, the source gives them in different places.

A short description of data set [1]: Solubility in aqueous medium buffered to physiological pH (phosphate 0.33M, pH 7.4). In kind it is physicochemical. As to the method: The solubilities of the compounds were also measured in a medium buffered to physiological pH (cf. Table 3).
For another data set, the system named is human Caco-2 cells. Kind of data set: In vitro test on human Caco-2 cells, cellular transport A to B. The class given is in vitro ADME. Particulars: prodrug incubated, 120 minutes; for Yield (experiment yield), the drug after incubation of the prodrug / Fabs (predicted absorbed fraction in humans), the drug after incubation of the prodrug: corresponding drug measured; for Fabs (predicted absorbed fraction in humans), the drug after incubation of the prodrug / Papp, compound measured: the prodrug itself: A to B; for Fabs (predicted absorbed fraction in humans), the drug after incubation of the prodrug: 1 or 3 μM; for Papp, compound measured: the prodrug itself: deposited apically at 1 or 3 μM; for Yield (experiment yield), compound measured: the prodrug itself: total amount found at the end versus incubated. As to the method:
The cellular transport from A to B (Apical to Basolateral) of the phosphate compounds of formula (I) and the compounds of formula (I′) (corresponding drugs) is studied in human Caco-2 cells. Each compound is deposited apically at 1 or 3 μM (in duplicate) and then incubated for 120 minutes.
Several samples are taken during the experiment; • apically: immediately after deposition (t=0) and at 120 minutes • basolaterally: at the end of the experiment (120 minutes)
The concentrations of the phosphate compound (prodrug) and/or of its hydroxylated homologue (drug) are determined by liquid chromatography coupled with mass spectrometric detection (LC-MS/MS). The limit of quantification for both entities is 2 ng/mL.
The apparent permeability (Papp) and the predicted absorbed fraction (Fabs) in humans are calculated for the prodrug, for the drug after incubation of the prodrug and for the drug after incubation of the drug (Hubatsch et al, Nat Protoc. 2007; 2(9), 2111-2119).
The experiment yield, which corresponds to the ratio (in percent) of the total amount of compound found at the end of the experiment versus that incubated, is also calculated.

A short description of data set [2]: Pharmacokinetic profile / in vivo conversion after oral administration to SCID mice (plasma, LC-MS/MS). Conditions: aqueous formulation (1M sodium carbonate). Details: species or system female SCID mice. As to the method: The pharmacokinetic profile of the phosphate compounds of formula (I) is evaluated in a lipid formulation and in aqueous solution in female SCID mice. This is compared to the pharmacokinetic profile of compounds of formula (I′) in a lipid formulation. More specifically, 4-[{[3-(6-{[(3S)-3-(morpholin-4-ylmethyl)-3,4-dihydroisoquinolin-2(1H)-yl]-carbonyl}-1,3-benzodioxol-5-yl)-5,6,7,8-tetrahydroindolizin-1-yl]carbonyl}(phenyl)-amino]phenyl disodium phosphate (also referred to as the compound of Example 1) was tested and compared to N-(4-hydroxyphenyl)-3-{6-[((3S)-3-(4-morpholinylmethyl)-3,4-dihydro-2(1H)-isoquinolinyl)carbonyl]-1,3-benzodioxol-5-yl}-N-phenyl-5,6,7,8-tetrahydro-1-indolizine carboxamide (also referred to as the drug from Example 1).
The compound of Example 1 is prepared in a mixture of anhydrous ethanol/polyethylene glycol 300/water (10/40/50, v/v/v) intended for administration by the p.o. route. The study is carried out in 2 groups of SCID mice to which the compound of Example 1 is administered under the following conditions: • Group 1: 3 mg/kg p.o. (gavage, 10 mL/kg), • Group 2: 25 mg/kg p.o. (gavage, 10 mL/kg).
Blood samples are taken at the following points in time (3 samples per animal and 3 animals for each point in time): 0.25 hr, 0.5 hr, 1 hr, 2 hrs, 6 hrs and 24 hrs after oral administration.
The compound of Example 1 is also administered by the oral route in an aqueous medium to SCID mice, under the following conditions: • Group 1: 30 mg/kg p.o. dissolved in 1 mM sodium carbonate solution (gavage, 10 mL/kg), • Group 2: 100 mg/kg p.o. in water (gavage, 10 mL/kg).
Blood samples are taken at the following points in time (3 animals for each point in time and 1 sample per animal): 0.25 hr, 0.5 hr, 1 hr, 2 hrs, 4 hrs, 6 hrs and 24 hrs after oral administration.
For all formulations of the compound of Example 1, the blood thereby collected is centrifuged and the plasma is transferred to tubes containing 1M hydrochloric acid. The plasma concentrations of the phosphate compound (prodrug) and its hydroxylated homologue (drug) are determined simultaneously using a method of liquid chromatography coupled with mass spectrometric detection (TFC-LC-MS/MS). The limit of detection for both entities is 0.5 ng/mL.
The drug from Example 1 is prepared in a mixture of anhydrous ethanol/polyethylene glycol 300/water (10/40/50, v/v/v) intended for administration by the p.o. route. The study is carried out in several groups of SCID mice to which the drug from Example 1 is administered under the following conditions: • Group 1: 3 mg/kg p.o. (gavage, 10 mL/kg), • Group 2: 30 mg/kg p.o. (gavage, 10 mL/kg), • Group 3: 25 mg/kg p.o. (gavage, 10 mL/kg), • Group 4: 100 mg/kg p.o. (gavage, 10 mL/kg).
Blood samples are taken at the following points in time (3 animals for each point in time and 3 samples per animal for Groups 1-2 and 1 sample per animal for Groups 3 and 4): • p.o.: before administration and then 0.25 hr, 0.5 hr, 0.75 hr, 1 hr, 2 hrs, 4 hrs, 6 hrs, 8 hrs, 16 hrs and 24 hrs after oral administration at 3 and 30 mg/kg, • p.o.: 0.5 hr, 2 hrs, 6 hrs, 16 hrs and 24 hrs after oral administration at 25 mg/kg and 0.5 hr, 1 hr, 2 hrs, 6 hrs, 16 hrs, 30 hrs and 48 hrs after oral administration at 100 mg/kg.
The plasma from the blood samples collected after administration of the lipid formulations of the drug from the compound of Example 1 are analysed by liquid chromatography coupled with mass spectrometric detection. The limit of quantification of the drug from the compound of Example 1 is less than or equal to 0.5 ng/mL.
Non-compartmental pharmacokinetic analysis is carried out on the mean values of the plasma concentrations of the compounds tested. […]

Setting [3] is: phosphate 0.33M, pH = 7.4, 10 μM.
[4] abbreviates: phosphate 0.33M, pH = 7.4, 20 μM.
[5] abbreviates: phosphate 0.33M, pH = 7.4, 50 μM.
Setting [6] is: phosphate 0.33M, pH = 7.4, 100 μM.
[7] abbreviates: Example 20 administered 25 mg/kg p.o.
Where [8] appears, read: Example 25 administered 3 mg/kg p.o.
Setting [9] is: Example 25 administered 25 mg/kg p.o.

Regarding `[2H]C([2H])([2H])n1cc(N(C(=O)c2cc(-c3cc(Cl)ccc3C(=O)N3Cc4ccccc4C[C@H]3CN3CCOCC3)n(C)c2C)c2ccc(O)cc2)cn1` [Drug from Example 19, 5-(5-Chloro-2-{[(3S)-3-(morpholin-4-ylmethyl)-3,4-dihydroisoquinolin-2(1H)-yl]carbonyl}phenyl)-N-(4-hydroxyphenyl)-1,2-dimethyl-N-[1-(trideuteriomethyl)-1H-pyrazol-4-yl]-1H-pyrrole-3-carboxamide], the “Solubility at 10 μM” value in data set [1] (setting [3]) is “Soluble”. Besides, in data set [1] (setting [4]), the “Solubility at 20 μM” value was “Soluble”. Further, the “Solubility at 50 μM” value in data set [1] (setting [5]) is reported as “Soluble”. In addition, the “Solubility at 100 μM” value in data set [1] (setting [6]) is reported as “Insoluble”.

In the case of `C[C@@H]1Cc2ccccc2CN1C(=O)c1cc2c(cc1-c1cc(C(=O)N(c3ccc(OP(=O)([O-])[O-])cc3)c3cnc4c(ccn4C)c3)c3ccccn13)OCO2.[Na+].[Na+]` [Example 4, 4-[{[3-(6-{[(3R)-3-Methyl-3,4-dihydroisoquinolin-2(1H)-yl]carbonyl}-1,3-benzodioxol-5-yl)indolizin-1-yl]carbonyl}(1-methyl-1H-pyrrolo[2,3-b]pyridin-5-yl)amino]phenyl disodium phosphate], in the data set on human Caco-2 cells, the “Yield (experiment yield), the drug after incubation of the prodrug” value (“Yield (experiment yield), the drug” for short) is recorded as “Yield (%) = 38”; the “Fabs (predicted absorbed fraction in humans), the drug after incubation of the prodrug” value is on record as “Fabs (%) = 69”; the “Papp, compound measured: the prodrug itself” value is recorded as “Papp (10^−6 cm/s) = 0.33”; the “Yield (experiment yield), compound measured: the prodrug itself” value (from here on “Yield … the prodrug itself”) was “Yield (%) = 1.3”.

As to `C[C@@H]1Cc2ccccc2CN1C(=O)c1cc2c(cc1-c1cc(C(=O)N(c3ccncc3)c3ccc(OP(=O)([O-])[O-])cc3)c3ccccn13)OCO2.[Na+].[Na+]` [Example 5, 4-[{[3-(6-{[(3R)-3-Methyl-3,4-dihydroisoquinolin-2(1H)-yl]carbonyl}-1,3-benzodioxol-5-yl)indolizin-1-yl]carbonyl}(pyridin-4-yl)amino]phenyl disodium phosphate], in the data set with human Caco-2 cells, the “Yield (experiment yield), the drug” value was “Yield (%) = 78”; the “Fabs (predicted absorbed fraction in humans), the drug after incubation of the prodrug” value was “Fabs (%) = 86”; the “Papp, compound measured: the prodrug itself” value is listed as “Papp (10^−6 cm/s) = 0.26”; the “Yield … the prodrug itself” value was “Yield (%) = 1.2”.

Consider `[2H]C([2H])([2H])n1cc(N(C(=O)c2cc(-c3cc(Cl)ccc3C(=O)N3Cc4ccccc4C[C@H]3CN3CCOCC3)n(C)c2C)c2ccc(OP(=O)([O-])[O-])cc2)cn1.[Na+].[Na+]` [Example 19, 4-({[5-(5-Chloro-2-{[(3S)-3-(morpholin-4-ylmethyl)-3,4-dihydroisoquinolin-2(1H)-yl]carbonyl}phenyl)-1,2-dimethyl-1H-pyrrol-3-yl]carbonyl}[1-(trideuteriomethyl)-1H-pyrazol-4-yl]amino)phenyl disodium phosphate], for which, in data set [1], the “Solubility at 10 μM” value is “Soluble”, the “Solubility at 20 μM” value is “Soluble”, the “Solubility at 50 μM” value is on record as “Soluble” and the “Solubility at 100 μM” value was “Soluble”.

Turning to `Cc1c(N(C(=O)c2cc(-c3cc(Cl)ccc3C(=O)N3Cc4ccccc4C[C@H]3CN3CCOCC3)n(C)c2C)c2ccc(OP(=O)([O-])[O-])cc2)cc(C#N)n1C.[Na+].[Na+]` [Example 20, 4-[{[5-(5-Chloro-2-{[(3S)-3-(morpholin-4-ylmethyl)-3,4-dihydroisoquinolin-2(1H)-yl]carbonyl}phenyl)-1,2-dimethyl-1H-pyrrol-3-yl]carbonyl}(5-cyano-1,2-dimethyl-1H-pyrrol-3-yl)amino]phenyl disodium phosphate], in the data set on human Caco-2 cells, the “Yield (experiment yield), the drug” value is on record as “Yield (%) = 100”; the “Fabs (predicted absorbed fraction in humans), the drug after incubation of the prodrug” value is listed as “Fabs (%) = 16”; the “Yield … the prodrug itself” value is on record as “Yield (%) = 0.94”. Moreover, in data set [2] (Example 20 administered 3 mg/kg p.o., BLQ: below the limit of quantification), the “Cmax, compound measured: Example 20” value is given as “Cmax (ng/mL) = BLQ”. For the same compound, in data set [2] (setting [7]), the “AUCt, compound measured: Example 20” value is recorded as “AUCt (ng · h/mL) = 106”; the “Cmax, compound measured: Example 20” value is listed as “Cmax (ng/mL) = 127”; the “Tmax, compound measured: Example 20” value is given as “Tmax (h) = 0.25”. Moreover, in data set [1] (setting [3]), the “Solubility at 10 μM” value is reported as “Soluble”. Further, the “Solubility at 20 μM” value in data set [1] (setting [4]) was “Soluble”. Further, in data set [1] (setting [5]), the “Solubility at 50 μM” value is listed as “Soluble”. Besides, the “Solubility at 100 μM” value in data set [1] (setting [6]) is given as “Soluble”.

Turning to `Cc1c(N(C(=O)c2cc(-c3cc(F)ccc3C(=O)N3Cc4ccccc4C[C@H]3CN3CCOCC3)n(C)c2C)c2ccc(OP(=O)([O-])[O-])cc2)cc(C#N)n1C.[Na+].[Na+]` [Example 25, 4-[(5-Cyano-1,2-dimethyl-1H-pyrrol-3-yl){[5-(5-fluoro-2-{[(3S)-3-(morpholin-4-ylmethyl)-3,4-dihydroisoquinolin-2(1H)-yl]carbonyl}phenyl)-1,2-dimethyl-1H-pyrrol-3-yl]carbonyl}amino]phenyl disodium phosphate], in the data set on human Caco-2 cells, the “Yield (experiment yield), the drug” value is on record as “Yield (%) = 48”; the “Fabs (predicted absorbed fraction in humans), the drug after incubation of the prodrug” value is recorded as “Fabs (%) = 20”; the “Yield … the prodrug itself” value is listed as “Yield (%) = 33”. Besides, in data set [2] (setting [8]), the “AUCt, compound measured: Example 25” value was “AUCt (ng · h/mL) = 14”; the “Cmax, compound measured: Example 25” value was “Cmax (ng/mL) = 17”; the “Tmax, compound measured: Example 25” value is given as “Tmax (h) = 1.0”. For the same compound, in data set [2] (setting [9]), the “AUCt, compound measured: Example 25” value is on record as “AUCt (ng · h/mL) = 114”; the “Cmax, compound measured: Example 25” value is “Cmax (ng/mL) = 106”; the “Tmax, compound measured: Example 25” value is given as “Tmax (h) = 1.0”. For the same compound, the “Solubility at 10 μM” value in data set [1] (setting [3]) was “Soluble”. The “Solubility at 20 μM” value in data set [1] (setting [4]) is “Soluble”. The “Solubility at 50 μM” value in data set [1] (setting [5]) is reported as “Soluble”. The “Solubility at 100 μM” value in data set [1] (setting [6]) was “Soluble”.
